Patent US3985737A, “3-Sulfonate esters of cephalosporin” (Eli Lilly and Company, priority 1974, dated 1976)
In brackets after ≈: the same amount, converted by molar mass. Like-named read-outs stand apart in the source and are kept apart here.

Experiments:
Pseudomonas aeruginosa = assay: Standard Gradient-Plate method, MIC vs. Pseudomonas aeruginosa; type: cell-based; conditions: in vitro, read-out: Minimum Inhibitory Concentration
Description: (§1) The 7-acylamido-3-cephem-3-sulfonate esters of the formula I wherein R1 is hydrogen (the free acid form) are useful antibiotic substances which are useful in combatting infections attributable to gram-positive and gram-negative bacteria and also penicillin resistant staphylococci. The antibacterial activity of these sulfonate esters is illustrated by the following in vitro test data obtained with representative compounds. In Table I below, the minimum inhibitory concentration (MIC) for representative compounds against gram-negative bacteria is presented. The data were obtained by the standard Gradient-Plate method.

Klebsiella pneumoniae = assay: Standard Gradient-Plate method, MIC vs. Klebsiella pneumoniae; type: cell-based; conditions: in vitro, read-out: Minimum Inhibitory Concentration
Description: as §1

Electrometric titration = type: physicochemical; conditions: 80% aqueous methyl cellosolve, 80 percent aqueous methyl cellosolve
Description: Electrometric titration (80 percent aqueous methyl cellosolve) pKa 3.9.
Electrometric titration in 80 percent aqueous methyl cellosolve pKa 4.15.
Electrometric titration in 80 percent aqueous methyl cellosolve pKa 4.75.
Electrometric titration (80 percent aqueous methyl cellosolve) pKa 4.4.
Electrometric titration (80 percent aqueous methyl cellosolve) pKa 4.25.

Escherichia coli = assay: Standard Gradient-Plate method, MIC vs. Escherichia coli; type: cell-based; conditions: in vitro, read-out: Minimum Inhibitory Concentration
Description: as §1

Serratia marcescens = assay: Standard Gradient-Plate method, MIC vs. Serratia marcescens; type: cell-based; conditions: in vitro, read-out: Minimum Inhibitory Concentration
Description: as §1

Shigella sp. = assay: Standard Gradient-Plate method, MIC vs. Shigella sp.; type: cell-based; conditions: in vitro, read-out: Minimum Inhibitory Concentration
Description: as §1

Aerobacter aerogenes = assay: Standard Gradient-Plate method, MIC vs. Aerobacter aerogenes; type: cell-based; conditions: Klebsiella aerogenes, in vitro, read-out: Minimum Inhibitory Concentration
Description: as §1

Salmonella heidelberg = assay: Standard Gradient-Plate method, MIC vs. Salmonella heidelberg; type: cell-based; conditions: Salmonella enterica, in vitro, read-out: Minimum Inhibitory Concentration
Description: as §1

SMILES	MIC (Pseudomonas aeruginosa) [µg/mL]	MIC (Klebsiella pneumoniae) [µg/mL]	pKa (Electrometric titration; read-out: pKa)	MIC (Escherichia coli) [µg/mL]	MIC (Serratia marcescens) [µg/mL]	MIC (Shigella sp.) [µg/mL]	MIC (Aerobacter aerogenes) [µg/mL]	MIC (Salmonella heidelberg) [µg/mL]	pKa (Electrometric titration; second of two pKa values, read-out: pKa (second value))
CS(=O)(=O)OC1=C(C(=O)O)N2C(=O)C(NC(=O)Cc3cccs3)[C@H]2SC1 (stereo partly shown) [Compound 1, 7-[2-(2-thienyl)acetamido]-3-methylsulfonyloxy-3-cephem-4-carboxylic acid]	> 200	6.5 (≈ 15.5 µM)	3.9	11 (≈ 26.3 µM)	110 (≈ 263 µM)	10.7 (≈ 25.6 µM)	3.5 (≈ 8.36 µM)	2 (≈ 4.78 µM)	
CCS(=O)(=O)OC1=C(C(=O)O)N2C(=O)C(NC(=O)Cc3cccs3)[C@H]2SC1 (stereo partly shown) [Compound 2, 7-[2-(2-thienyl)acetamido]-3-ethylsulfonyloxy-3-cephem-4-carboxylic acid]	> 200	7 (≈ 16.2 µM)	4.15	13.1 (≈ 30.3 µM)	120 (≈ 277 µM)	7 (≈ 16.2 µM)	3.5 (≈ 8.09 µM)	4 (≈ 9.25 µM)	
Cc1ccc(S(=O)(=O)OC2=C(C(=O)O)N3C(=O)C(NC(=O)Cc4cccs4)[C@H]3SC2)cc1 (stereo partly shown) [Compound 4, 7-[2-(2-thienyl)acetamido]-3-(p-toluenesulfonyloxy)-3-cephem-4-carboxylic acid]	> 200	9.3 (≈ 18.8 µM)	4.4	16.3 (≈ 33 µM)	> 200	19.5 (≈ 39.4 µM)	16.5 (≈ 33.4 µM)	125 (≈ 253 µM)	
CCCCS(=O)(=O)OC1=C(C(=O)O)N2C(=O)C(NC(=O)Cc3cccs3)[C@H]2SC1 (stereo partly shown) [Compound 3, 7-[2-(2-thienyl)acetamido]-3-n-butylsulfonyloxy-3-cephem-4-carboxylic acid]	> 200	5.5 (≈ 11.9 µM)	4.75	8.8 (≈ 19.1 µM)	180 (≈ 391 µM)	6.5 (≈ 14.1 µM)	6 (≈ 13 µM)	6 (≈ 13 µM)	
CS(=O)(=O)OC1=C(C(=O)O)N2C(=O)C(NC(=O)[C@H](N)c3ccccc3)C2SC1 (stereo partly drawn) [Compound 6, 7-(D-phenylglycylamido)-3-methylsulfonyloxy-3-cephem-4-carboxylic acid]	> 200	5.5 (≈ 12.9 µM)	3.6	19.5 (≈ 45.6 µM)	100 (≈ 234 µM)	13.6 (≈ 31.8 µM)	8.8 (≈ 20.6 µM)	7 (≈ 16.4 µM)	6.75
O=C(Cc1cccs1)NC1C(=O)N2C(C(=O)O)=C(OS(=O)(=O)c3ccc(F)cc3)CS[C@H]12 (stereo partly shown) [Compound 5, 7-[2-(2-thienyl)acetamido]-3-(4-fluorobenzenesulfonyloxy)-3-cephem-4-carboxylic acid]	> 200	16.3 (≈ 32.7 µM)	4.25	24 (≈ 48.1 µM)	> 200	16.5 (≈ 33.1 µM)	12 (≈ 24.1 µM)	13.5 (≈ 27.1 µM)	
